Common to all, as to format: in vivo
In one assay the test system is diabetic rats. The assay can be described thus: Diabetic nephrosis of obese diabetic rats (high-fat high-sugar diet plus STZ). As to conditions: six months, ig 65 mg/kg. The protocol: Animal model of diabetic rats: after one month of high-fat high-sugar diet, the rats (about 180 g) were injected by sub-pathogenic dose (25 mg/kg) of streptozotocin (STZ) to induce the occurrence of diabetes. The model has the characteristics of moderate hyperglycemia, hyperlipidemia and insulin resistance as well as pathological changes of typical diabetic nephrosis.
• 1. Conventional feedstuff control group: distilled water. • 2. Diabetes model group: distilled water. • 3. Rhein lysine diabetes treatment group: a month after STZ injection, rhein lysine complex [prepared with distilled water, intragastric infusion for rats according to 90 mg/kg (0.209 mmol/kg) dose] was administered referred to treatment group 1. • 4. Rhein sodium diabetes treatment group: a month after STZ injection, rhein sodium [prepared with distilled water, intragastric infusion for rats, according to 65 mg/kg (0.212 mmol/kg) dose] was administered, referred to treatment group 2. • 5. Rhein lysine diabetes prevention group: one week after STZ injection, rhein lysine conjugates were administered [prepared with distilled water and intragastric infusion for rats, according to 90 mg/kg (0.209 mmol/kg) dose], referred to prevention group 1. • 6. Rhein sodium diabetes prevention group: one week after STZ injection, rhein sodium were administered [prepared with distilled water and intragastric infusion for rats, according to 65 mg/kg (0.212 mmol/kg ) dose], referred to prevention group 2.

Assay [1] deals with rats. Put plainly: Formation of cotton ball granuloma in rats (Example 59 Test 2). The following applies: 12 mg/kg intragastric, two weeks. As for the experimental part: Rats were randomly divided into five groups (model control group, indomethacin group, rhein glucosamine large dose group and low dose group and rhein sodium group). Each group included 10 rats, and built models according to the method in the literature [Xu Shuyun, Methodology in Pharmacological Experiment (the 3rd version): 918]. The rats were administered by medicines from the day when starting the operation. […] The rats were killed in two weeks, and tests were performed according to the methods in the literature, the net weight of granulation was calculated, and t test was used for the intergroup comparison.

The subject of assay [2] is rats. The assay can be described thus: Carrageenan-induced acute pleurisy exudation and leukoplania in rats. The following applies: intraperitoneal 20 mg/kg, four hours after carrageenan. As for the experimental part: Forty male rats of 200±20 g weight were selected and divided into five groups, namely, model control group, indomethacin group, rhein sodium group, rhein glucosamine large dose group and small dose group. Eight rats for each group. The rats were administered with medicines by intraperitoneal administration, one hour later, the rats were induced with acute pleurisy by carrageenan according to the method in the literature [Xu Shuyun, Methodology in Pharmacological Experiment (the 3rd version): 916]. Four hours later, the rats were killed and the volume of pleural effusion and total white cell count were measured.

Assay [3] deals with rats. Put plainly: Formation of granuloma in rats (arthritis example, test 4). The following applies: 20 mg/kg intragastric, two weeks. As for the experimental part: Rats were randomly divided into five groups (model control group, indomethacin group, rhein glucosamine large dose group and small dose group and rhein sodium group). Each group has 10 […]. According to the method in the literature [Xu Shuyun, Methodology in Pharmacological Experiment (the 3rd version): 918], the models were built, and the rats were administered with medicines since the day when starting operations. […] Two weeks later, the rats were killed and test was carried on according to the method in the literature. The net weight of granulation was calculated, and t test was used for the intergroup comparison.

For another assay, the system named is mice. Put plainly: Acetic acid-induced writhing response in mice. The following applies: ig 40 mg/kg, 12 days. As for the experimental part:
Fifty Kunming mice, half male and half female, weighing 18-22 g each, were selected and randomly divided into five groups, namely, model control group, aspirin group, rhein sodium group, rhein glucosamine large dose group and small dose group, 10 mice for each group. The mice were administered with medicine by intragastric administration every day, 0.2 ml/10 g body weight, once every day, and administered for 12 days in succession. After the final administration of medicines, 30 minutes later, test was carried on according to the methods in the literature [Xu Shuyun, Methodology in Pharmacological Experiment (the 1st version): 882]. The inhibiting rate for writhing response was calculated.

Structures can show the parent of a compound that is named as a salt.

For `O=C(O)c1cc(O)c2c(c1)C(=O)c1cccc(O)c1C2=O` [Rhein sodium salt, rhein sodium salt], the Urine protein in the assay on diabetic rats (preventive administration from one week after STZ) is 11.54 ± 2.98 mg/24 h. For the same compound, in the assay on diabetic rats (preventive administration), the “Kidney weight index (double kidney weight/body weight × 10^4)” value is 5.21 ± 0.68, the Serum total cholesterol stood at 2.89 ± 0.31 mM, the Serum triacylglycerol came out at 1.68 ± 0.45 and the “Steady blood sugar level” value worked out at 6.7 ± 0.8 mmol/L. In the assay with diabetic rats (preventive administration), the Steady insulin level was found to be 72.6 ± 3.6 uU/ml, the Weight was 243 ± 12 g and the blood sugar worked out at 15.08 ± 5.7 mmol/L. Besides, the Urine protein in the assay with diabetic rats (treatment from a month after STZ) was found to be 16.15 ± 7.71 mg/24 h. In the assay with diabetic rats (treatment), the “Kidney weight index (double kidney weight/body weight × 10^4)” value is recorded as 6.9 ± 0.83, the Serum total cholesterol amounted to 3.71 ± 0.63 mM, the Serum triacylglycerol was found to be 1.66 ± 0.47 and the “Steady blood sugar level” value worked out at 5.9 ± 0.8 mmol/L. Besides, in the assay on diabetic rats (treatment), the Steady insulin level was 81 ± 4.5 uU/ml, the Weight is listed as 229 ± 16 g and the blood sugar worked out at 17.3 ± 3.3 mmol/L. For the same compound, in the assay on rats [1], the “net weight of granulation” value amounted to 15.87 ± 3.31 mg. In the assay with rats [2], the “Volume of exudation fluid” value worked out at 0.33 ± 0.12 and the WBC is given as 3.98 ± 1.64 ×109/L. Further, the “Net weight of granulation” value in the assay on rats [3] is reported as 15.23 ± 2.99Δ Δ mg. In the assay with mice, this compound returned an Inhibiting rate of 37.7% and a Times of writhing of 20.1 ± 8.9 per/20 min.

The record behind these values is US9181172B2, “Rhein conjugates, preparation method thereof and their uses in producing medicines for treating diabetic nephrosis, intestinal adhesion and osteoarthritis” (priority 2005, dated 2015).
